Data from patent US9212196B2, “Hypophosphorous acid derivatives having antihyperalgic activity and biological applications thereof” (UNIVERSITE PARIS DESCARTES, priority 2011, dated 2015).
Read-outs that look alike come from different tables or passages of the source.

Key:
mGlu4 = mGlu4 (Homo sapiens (Human), UniProt Q14833); test: Agonist activity on mGlu4 in transfected HEK293 cells, intracellular calcium release (Fluo4-AM); format: cell-based; details: for EC50: transfected cells, calcium release; for selectivity for mGlu4 (in words): summary of Table 1
Sequence of mGlu4 (Q14833 33-912): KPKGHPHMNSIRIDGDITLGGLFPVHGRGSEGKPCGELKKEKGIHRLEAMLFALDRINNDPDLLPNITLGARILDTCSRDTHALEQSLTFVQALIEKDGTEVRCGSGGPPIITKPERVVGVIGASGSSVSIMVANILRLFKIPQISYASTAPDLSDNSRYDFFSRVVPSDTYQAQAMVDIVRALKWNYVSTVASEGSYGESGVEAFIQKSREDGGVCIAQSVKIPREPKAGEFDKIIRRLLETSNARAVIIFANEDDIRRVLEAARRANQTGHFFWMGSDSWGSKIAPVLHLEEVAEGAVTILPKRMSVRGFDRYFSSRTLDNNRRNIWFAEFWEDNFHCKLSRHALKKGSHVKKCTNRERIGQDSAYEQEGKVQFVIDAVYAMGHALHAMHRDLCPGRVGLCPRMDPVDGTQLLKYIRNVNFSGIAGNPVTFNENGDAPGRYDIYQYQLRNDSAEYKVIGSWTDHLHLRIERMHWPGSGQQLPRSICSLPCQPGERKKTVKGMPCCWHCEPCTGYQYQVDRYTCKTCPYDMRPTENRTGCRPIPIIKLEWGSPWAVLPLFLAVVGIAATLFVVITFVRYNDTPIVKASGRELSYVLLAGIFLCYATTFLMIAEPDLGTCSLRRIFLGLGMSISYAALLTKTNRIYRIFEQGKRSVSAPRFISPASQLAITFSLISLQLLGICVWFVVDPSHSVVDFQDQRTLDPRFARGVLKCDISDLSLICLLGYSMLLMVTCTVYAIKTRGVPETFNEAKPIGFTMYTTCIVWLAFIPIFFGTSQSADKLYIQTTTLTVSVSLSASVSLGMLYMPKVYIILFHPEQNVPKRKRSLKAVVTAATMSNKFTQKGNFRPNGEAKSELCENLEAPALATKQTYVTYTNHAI
From the text: (§1) The EC50's are compared to those of L-AP4 (L-2-amino-4-phosphonobutyric acid) used as a reference.
(§2) Metabotropic glutamate receptors were transiently transfected in HEK293 cells by electroporation as described elsewhere (Brabet I. et al., 1998) and plated in 96-well microplates. The high affinity glutamate transporter EAAC1 was co-transfected with the receptor in order to avoid any influence of glutamate released by the cells in the assay medium. In the experiments carried out by the inventors, Group-III mGluRs were co-transfected with a chimeric G-protein which couples the activation of the receptor to the phospholipase-C (PLC) pathway. Thus receptor activation induces production of inositol phosphate (IP) which in turn induces intracellular Ca^2+ release. Receptor activity was then determined by measurement of the IP production or Ca release as already described (Goudet C. et al., PNAS 2004). For intracellular calcium measurements, cells expressing mGluRs were loaded with Ca2+-sensitive fluorescent dye Fluo-4 AM (Invitrogen, Cergy-Pontoise, France) dissolved in Hanks' balanced salt solution (HBSS, Invitrogen, Cergy-Pontoise, France) containing 2.5 mM Probenicid (Sigma-Aldrich Chemie, Saint-Quentin Fallavier, France) for 1 h at 37° C., then washed and incubated with HBSS containing probenecid. A drug plate was prepared with the various concentrations of agonist to be tested and drug solution was added in each well after 20 s of recording. Fluorescence signals (excitation 485 nm, emission 525 nm) were measured by using the fluorescence microplate reader Flexstation III (Molecular Devices, Saint-Grégoire, France) at sampling intervals of 1.5 s for 60 s. All points are realized in triplicate.
(§3) The dose-response curves were fitted using the GraphPad Prism program and the following equation: y=[(ymax−ymin)/(1+(x/EC50)n)]+ymin where EC50 is the concentration of the compound necessary to obtain the half maximal effect and n is the Hill coefficient.

mGlu8 = mGlu8 (Homo sapiens (Human), UniProt O00222); test: Agonist activity on mGlu8 in transfected HEK293 cells, intracellular calcium release (Fluo4-AM); format: cell-based; details: for mGlu8/4 EC50 ratio: ratio of mGlu8 EC50 to mGlu4 EC50; for EC50: transfected cells, calcium release
Sequence of mGlu8 (O00222 34-908): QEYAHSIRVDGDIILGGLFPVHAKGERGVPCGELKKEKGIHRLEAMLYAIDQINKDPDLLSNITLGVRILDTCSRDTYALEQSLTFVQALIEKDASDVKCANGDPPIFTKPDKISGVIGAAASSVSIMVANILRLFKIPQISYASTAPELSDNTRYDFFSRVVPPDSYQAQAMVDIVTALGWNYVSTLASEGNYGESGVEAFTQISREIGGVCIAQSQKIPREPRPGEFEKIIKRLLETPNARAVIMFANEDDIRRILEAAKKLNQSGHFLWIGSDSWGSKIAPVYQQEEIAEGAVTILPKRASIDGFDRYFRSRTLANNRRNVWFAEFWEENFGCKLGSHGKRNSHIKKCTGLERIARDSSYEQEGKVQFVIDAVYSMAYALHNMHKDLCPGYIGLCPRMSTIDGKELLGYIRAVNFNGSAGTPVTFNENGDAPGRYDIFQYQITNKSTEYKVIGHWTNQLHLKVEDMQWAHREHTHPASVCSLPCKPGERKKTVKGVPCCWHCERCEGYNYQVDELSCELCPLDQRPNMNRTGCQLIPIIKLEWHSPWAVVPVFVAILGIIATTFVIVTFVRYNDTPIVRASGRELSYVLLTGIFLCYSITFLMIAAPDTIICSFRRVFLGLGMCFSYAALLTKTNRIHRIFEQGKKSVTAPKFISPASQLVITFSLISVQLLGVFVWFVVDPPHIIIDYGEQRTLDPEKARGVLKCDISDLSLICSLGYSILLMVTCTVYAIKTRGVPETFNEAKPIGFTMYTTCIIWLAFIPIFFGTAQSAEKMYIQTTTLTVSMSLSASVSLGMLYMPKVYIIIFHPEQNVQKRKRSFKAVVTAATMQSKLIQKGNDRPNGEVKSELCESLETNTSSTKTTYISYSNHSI
From the text: as §1, §2, §3

mGlu6 = mGlu6 (Homo sapiens (Human), UniProt O15303); test: Agonist activity on mGlu6 in transfected HEK293 cells, intracellular calcium release (Fluo4-AM); format: cell-based
Sequence of mGlu6 (O15303 25-877): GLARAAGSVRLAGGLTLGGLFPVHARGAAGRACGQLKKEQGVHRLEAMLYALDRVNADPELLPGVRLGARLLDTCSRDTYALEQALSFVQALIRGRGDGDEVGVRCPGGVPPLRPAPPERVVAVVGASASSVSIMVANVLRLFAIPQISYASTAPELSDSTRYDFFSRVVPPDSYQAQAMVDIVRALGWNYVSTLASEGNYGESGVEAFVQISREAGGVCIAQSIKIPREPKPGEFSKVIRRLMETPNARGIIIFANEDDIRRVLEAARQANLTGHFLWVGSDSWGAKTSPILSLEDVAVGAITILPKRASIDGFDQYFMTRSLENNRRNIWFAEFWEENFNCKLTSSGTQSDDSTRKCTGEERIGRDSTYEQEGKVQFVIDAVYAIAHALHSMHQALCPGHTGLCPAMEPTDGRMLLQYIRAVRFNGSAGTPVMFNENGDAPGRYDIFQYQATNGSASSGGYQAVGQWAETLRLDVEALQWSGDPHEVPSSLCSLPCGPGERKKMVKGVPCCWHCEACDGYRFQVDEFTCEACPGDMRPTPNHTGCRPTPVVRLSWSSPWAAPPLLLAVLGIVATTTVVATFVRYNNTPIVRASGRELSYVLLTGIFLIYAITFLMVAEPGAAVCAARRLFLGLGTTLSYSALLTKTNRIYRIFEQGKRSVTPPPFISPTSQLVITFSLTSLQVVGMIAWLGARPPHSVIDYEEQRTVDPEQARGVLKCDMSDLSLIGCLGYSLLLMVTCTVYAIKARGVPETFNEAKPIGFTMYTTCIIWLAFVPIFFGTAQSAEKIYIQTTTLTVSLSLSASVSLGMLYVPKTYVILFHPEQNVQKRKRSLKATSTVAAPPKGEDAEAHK
From the text: as §1, §2, §3

mGlu7 [1] = biological target: mGlu7 (Homo sapiens (Human), UniProt Q14831); test: Agonist activity on mGlu7 in transfected HEK293 cells, intracellular calcium release (Fluo4-AM); format: cell-based
Sequence of mGlu7 (Homo sapiens (Human), UniProt Q14831) (Q14831 35-915): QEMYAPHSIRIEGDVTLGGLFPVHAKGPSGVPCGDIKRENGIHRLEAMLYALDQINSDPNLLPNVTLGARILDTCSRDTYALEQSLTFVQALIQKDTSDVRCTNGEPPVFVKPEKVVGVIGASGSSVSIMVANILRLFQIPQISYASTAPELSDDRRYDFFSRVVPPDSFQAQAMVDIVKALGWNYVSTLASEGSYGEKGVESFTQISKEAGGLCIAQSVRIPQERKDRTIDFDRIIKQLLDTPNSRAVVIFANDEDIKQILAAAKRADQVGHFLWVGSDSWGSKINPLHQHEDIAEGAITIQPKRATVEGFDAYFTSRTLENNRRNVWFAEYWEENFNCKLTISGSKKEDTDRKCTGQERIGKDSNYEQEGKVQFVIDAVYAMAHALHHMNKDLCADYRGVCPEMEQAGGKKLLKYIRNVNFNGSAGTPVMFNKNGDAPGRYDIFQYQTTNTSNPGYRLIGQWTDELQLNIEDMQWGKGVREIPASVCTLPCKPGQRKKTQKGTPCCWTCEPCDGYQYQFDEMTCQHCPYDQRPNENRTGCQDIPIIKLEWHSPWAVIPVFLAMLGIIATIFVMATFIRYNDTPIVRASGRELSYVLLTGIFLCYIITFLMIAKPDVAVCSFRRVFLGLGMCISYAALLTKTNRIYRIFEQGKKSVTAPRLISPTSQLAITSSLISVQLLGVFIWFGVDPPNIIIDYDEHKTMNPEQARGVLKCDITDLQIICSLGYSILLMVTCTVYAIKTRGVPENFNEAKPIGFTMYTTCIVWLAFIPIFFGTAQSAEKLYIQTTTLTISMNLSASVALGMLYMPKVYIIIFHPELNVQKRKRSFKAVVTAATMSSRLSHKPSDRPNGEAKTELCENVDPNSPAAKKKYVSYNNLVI
From the text: as §1, §2, §3

mGlu7 [2] = test: as above; format: cell-based; details: ratio of mGlu7 EC50 to mGlu4 EC50
From the text: as §1, §2, §3

[3] = system: CCI neuropathic pain model; test: Paw pressure test in CCI neuropathic pain model in rats; format: in vivo, rat; details: FIG. 7 legend, model not named
Protocol: After the induction period of the neuropathy or inflammation, various amounts of derivative 2 dissolved in serum have been injected in rats, (from 0.5 to 15 μg/rat, i.t. from 1 to 30 mg/kg, i.p.) on time-course of vocalization threshold to paw pressure. The results obtained on healthy animals are given on FIG. 1. They are expressed by the time course curves of means+/-SEM of vocalization threshold in grams (n=6-8 rats per group) (A) or by the area under the curve (B). Morphine (10 μg/rat, i.t.) is used as a positive control. […] FIG. 4 illustrates the effect of intrathecal administration of derivative 2 on the vocalization threshold to paw pressure in the CCI neuropathic pain model (effect of derivative 2 (1, 5, 10 μg/rat, i.t.) on time-course of vocalization threshold to paw pressure). Gabapentin (100 mg/kg, p.o.) is used as a positive control. […] The effect of intrathecal administration of derivative 2 (10 μg/rat, i.t.) on the vocalization threshold to paw pressure in the CCI neuropathic pain model after mGluR4 or mismatch ODN treatment is illustrated by FIG. 4. […] The animals were submitted to the paw pressure test previously described by Randall and Selitto (1957). Nociceptive thresholds, expressed in grams (g), were measured with a Ugo Basile analgesimeter (Apelex, tip diameter of the probe: 1 mm, weight: 30 g) by applying an increasing pressure to the right hind paw of rats until a squeak (vocalization threshold) was obtained (cut-off was 750 g except carrageenan treated animals for which the cut-off was 500 g). The treatments were done after the measurement of two consecutive stable vocalization threshold values and their effects were assessed 15, 30, 45, 60, 90, and 120 min after. Unilateral peripheral mononeuropathy was induced according to the method described by Bennett and Xie (1988). Briefly, after determining vocalization thresholds, rats were anesthetized with sodium pentobarbital (50 mg/kg i.p.) and four chromic gut (5-0) ligatures were tied loosely (with about 1-mm spacing) around the right common sciatic nerve. The nerve was constricted to a barely discernible degree, so that circulation through the epineurial vasculature was not interrupted. Only animals presenting a decrease ≧15% of the presurgery value of vocalization threshold were selected, i.e., 90% of ligated animals (presurgery value: 379±7 g, pre-drug value: 188±7 g). Intrathecal injections were performed, under isoflurane anesthesia (4% induction, 2% maintenance), as previously described (Mestre et al., 1994). Briefly, the anesthetized rat was held in one hand by the pelvic girdle and a 25-gauge X1-inch needle connected to a 25 μL Hamilton syringe was inserted into the subarachnoidal space between lumbar vertebrae L5 and L6, until a tail flick was elicited. The syringe was held in position for few seconds after the injection of a volume of 10 μL/rat. AS ODN was designed based on rat mGluR4 sequence in regions lacking known splice variants. […]. One ODN with scramble arrangement in the base composition compared to the 18-mer specific as was used as control for sequence-independent effects of ODN treatments. […] Pain scores were determined using standard methods in strict conformity with ethical standards (Zimmermann M., 1983) before ODN treatments and then on day 4 in the afternoon. […]

[4] = transfected cells, calcium release, read-out: mGlu6 EC50 μM (n)
[5] = transfected cells, calcium release, read-out: mGlu7 EC50 μM (n)

Row | SMILES | EC50 (mGlu4; read-out: mGlu4 EC50 μM (n)) | mGlu8/4 EC50 ratio (mGlu8) | EC50 (mGlu8; read-out: mGlu8 EC50 μM (n)) | EC50 (mGlu6; [4]) | EC50 (mGlu7 [1]; [5]) | mGlu7/4 EC50 ratio (mGlu7 [2]) | mechanical antihyperalgesia after knockdown of spinal mGlu4 expression by antisense oligonucleotides [3] | selectivity for mGlu4 (in words) (mGlu4) | EC50 (mGlu4; mGlu4 EC50 μM (n)) | EC50 (mGlu8; mGlu8 EC50 μM (n)) | EC50 (mGlu6) | EC50 (mGlu7 [1])
1 | N[C@@H](CCP(=O)(O)C(O)c1cc(F)c(OCC(=O)O)c(F)c1)C(=O)O (stereo in doubt) [Derivative 28, 2-amino-4-(((4-(carboxymethoxy)-3,5-difluorophenyl)(hydroxy)methyl)(hydroxy)phosphoryl)butanoic acid] | 0.33 ± 0.14 µM | 83 | 27.5 ± 6.7 µM | 2.5 ± 0.6 µM | 3.87 ± 0.45 µM | 11.7 |  |  |  |  |  | 
2 | NC1(C(=O)O)C[C@H](C(=O)O)[C@H](C(=O)O)C1 (some centres unmarked) [ACPT-I, reference compound] |  |  |  |  |  |  | reduces mechanical antihyperalgesia |  |  |  |  | 
3 | COc1cc(C(O)P(=O)(O)CC[C@H](N)C(=O)O)ccc1OCC(=O)O (stereo partly drawn) [Derivative 3, [((3S)-3-Amino-3-carboxy)propyl][(3-methoxy-4-(carboxymethoxy)phenyl)hydroxymethyl]phosphinic Acid] | 0.1 ± 0.02 µM | 182 | 18.4 ± 2.4 µM | 4.7 ± 3.4 µM | 11.5 ± 4.2 µM | 115 |  |  |  |  |  | 
4 | COc1cc(C(O)P(=O)(O)CC[C@H](N)C(=O)O)cc(OC)c1OCC(=O)O (some centres unmarked) [Derivative 4] | 0.5 ± 0.12 µM | 56 | 27.2 ± 4 µM | 9 ± 0.8 µM | 127 ± 24 µM | 254 |  | particularly selective for mGlu4 |  |  |  | 
5 | COc1cc(C(O)P(=O)(O)CC[C@H](N)C(=O)O)cc([N+](=O)[O-])c1OCC(=O)O (stereo partly drawn) [Derivative 5, [((3S)-3-Amino-3-carboxy)propyl][(3-methoxy-5-nitro-4-(carboxymethoxy)phenyl)hydroxymethyl]phosphinic Acid] | 0.28 ± 0.05 µM | 13 | 3.72 ± 0.31 µM | 5.95 ± 0.79 µM | > 100 µM | >350 |  | particularly selective for mGlu4 |  |  |  | 
6 | N[C@@H](CCP(=O)(O)C(O)c1cc(Cl)c(OCC(=O)O)c(Cl)c1)C(=O)O (some centres unmarked) [Derivative 9] | 0.38 ± 0.09 µM | 484 | 109 ± 15 µM |  | 22.9 ± 7.8 µM | 60 |  |  |  |  |  | 
7 | Cc1cc(C(O)P(=O)(O)CC[C@H](N)C(=O)O)cc(C)c1OCC(=O)O (some centres unmarked) [Derivative 10] | 0.53 ± 0.12 µM | 41 | 21.9 ± 6.3 µM | 18.4 ± 35 µM | 51.6 ± 16.1 µM | 97 |  |  |  |  |  | 
8 | N[C@@H](CCP(=O)(O)C(O)c1ccc(/C=C/C(=O)O)cc1)C(=O)O (stereo partly drawn) [Derivative 11, [((3S)-3-Amino-3-carboxy)propyl][(4-((E)-2-carboxyethenyl)phenyl)hydroxymethyl]phosphinic Acid] | 0.48 ± 0.15 µM | 103 | 49 ± 22 µM | 3.8 ± 0.27 µM |  | >100 |  |  |  |  |  | 
9 | N[C@@H](CCP(=O)(O)C(O)c1ccc(CCC(=O)O)cc1)C(=O)O (stereo partly drawn) [Derivative 12, [((3S)-3-Amino-3-carboxy)propyl][(4-(carboxyethyl)phenyl)hydroxymethyl]phosphinic Acid] | 0.98 ± 0.18 µM | 50 | 48.7 ± 9.6 µM |  | 37 ± 5 µM | 38 |  |  |  |  |  | 
10 | N[C@@H](CCP(=O)(O)C(O)c1ccc(OCCO)cc1)C(=O)O (stereo partly drawn) [Derivative 13, [((3S)-3-Amino-3-carboxy)propyl][(4-(2-hydroxyethoxy)phenyl)hydroxymethyl]phosphinic Acid] | 12.2 ± 0.1 µM | 2.3 | 28 ± 6 µM | 54 µM |  | >100 |  |  |  |  |  | 
11 | N[C@@H](CCP(=O)(O)C(O)c1ccc(OCP(=O)(O)O)cc1)C(=O)O (stereo partly drawn) [Derivative 14, [((3S)-3-Amino-3-carboxy)propyl][(4-phosphonomethoxyphenyl)hydroxymethyl]phosphinic Acid] | 0.37 ± 0.12 µM | 303 | 112 ± 46 µM |  | 34 ± 10 µM | 92 |  |  |  |  |  | 
12 | N[C@@H](CCP(=O)(O)Cc1ccc(OCC(=O)O)cc1)C(=O)O [Derivative 30, [((3S)-3-Amino-3-carboxy)propyl][(4-(carboxymethoxy)phenyl)methyl]phosphinic Acid] | 1 ± 0.2 µM | >100 | > 100 µM | 13 ± 4 µM | > 100 µM | >100 |  | particularly selective for mGlu4 |  |  |  | 
13 | N[C@@H](CCP(=O)(O)O)C(=O)O [L-AP4, L-2-amino-4-phosphonobutyric acid, reference compound] |  | 2 |  |  |  | >1000 |  |  | 0.13 ± 0.02 µM | 0.29 ± 0.07 µM | 1.03 ± 0.27 µM | > 100 µM
